Tests used:
Test in all cases: relative viability (nuclei count vs DMSO), 5 days (fraction); higher = more cells survive
NCI-H1666 = test system: NCI-H1666
How it was run: (§1)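 Lung cancer cell lines in 1536-well plates got either a single drug or a fixed anchor-drug dose together with five library-drug doses (not always all listed) in √10 steps, by pin tool, on the day after seeding. Nuclei were counted after 5 days, and relative viability is the treated-to-vehicle ratio of nuclei counts. Values are medians of duplicate plates.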

EPLC-272H = test system: EPLC-272H
How it was run: as §1

PC-3 [JPC-3] = test system: PC-3 [JPC-3]
How it was run: as §1

EKVX = test system: EKVX
How it was run: as §1

NCI-H2342 = test system: NCI-H2342
How it was run: as §1

LU99A = test system: LU99A
How it was run: as §1

HCC-827 = test system: HCC-827
How it was run: as §1

NCI-H1975 = test system: NCI-H1975
How it was run: as §1

NCI-H2085 = test system: NCI-H2085
How it was run: as §1

LOU-NH91 = test system: LOU-NH91
How it was run: as §1

201T = test system: 201T
How it was run: as §1

HOP-62 = test system: HOP-62
How it was run: as §1

H3255 = test system: H3255
How it was run: as §1

NCI-H2087 = test system: NCI-H2087
How it was run: as §1

NCI-H1437 = test system: NCI-H1437
How it was run: as §1

HCC-44 = test system: HCC-44
How it was run: as §1

NCI-H358 = test system: NCI-H358
How it was run: as §1

LCLC-97TM1 = test system: LCLC-97TM1
How it was run: as §1

SW 1573 = test system: SW 1573
How it was run: as §1

NCI-H647 = test system: NCI-H647
How it was run: as §1

COR-L 105 = test system: COR-L 105
How it was run: as §1

NCI-H1395 = test system: NCI-H1395
How it was run: as §1

BEN = test system: BEN
How it was run: as §1

NCI-H2126 = test system: NCI-H2126
How it was run: as §1

Compound: Clc1ccc(Nc2nnc(Cc3ccncc3)c3ccccc23)cc1 [Vatalanib] + CCNC(=O)c1noc(-c2cc(C(C)C)c(O)cc2O)c1-c1ccc(CN2CCOCC2)cc1 [Luminespib] (partner 0.01 µM)
- relative viability (NCI-H1666; first compound 0.04 µM): 0.986
- relative viability (NCI-H1666; first compound 0.1265 µM): 0.991
- relative viability (NCI-H1666; first compound 0.4 µM): 0.996
- relative viability (NCI-H1666; first compound 1.265 µM): 1.01
- relative viability (NCI-H1666; first compound 4 µM): 1.04
- relative viability (EPLC-272H; first compound 0.04 µM): 0.593
- relative viability (EPLC-272H; first compound 0.1265 µM): 0.654
- relative viability (EPLC-272H; first compound 0.4 µM): 0.26
- relative viability (EPLC-272H; first compound 1.265 µM): 0.2
- relative viability (EPLC-272H; first compound 4 µM): 0.296
- relative viability (PC-3 [JPC-3]; first compound 0.04 µM): 0.697
- relative viability (PC-3 [JPC-3]; first compound 0.1265 µM): 0.688
- relative viability (PC-3 [JPC-3]; first compound 0.4 µM): 0.7
- relative viability (PC-3 [JPC-3]; first compound 1.265 µM): 0.706
- relative viability (PC-3 [JPC-3]; first compound 4 µM): 0.723
- relative viability (EKVX; first compound 0.04 µM): 0.904
- relative viability (EKVX; first compound 0.1265 µM): 0.805
- relative viability (EKVX; first compound 0.4 µM): 0.876
- relative viability (EKVX; first compound 4 µM): 0.852
- relative viability (NCI-H2342; first compound 0.04 µM): 0.684
- relative viability (NCI-H2342; first compound 0.1265 µM): 0.684
- relative viability (NCI-H2342; first compound 0.4 µM): 0.822
- relative viability (NCI-H2342; first compound 1.265 µM): 0.869
- relative viability (NCI-H2342; first compound 4 µM): 0.658
- relative viability (LU99A; first compound 0.04 µM): 0.255
- relative viability (LU99A; first compound 0.1265 µM): 0.238
- relative viability (LU99A; first compound 0.4 µM): 0.264
- relative viability (LU99A; first compound 1.265 µM): 0.286
- relative viability (LU99A; first compound 4 µM): 0.246
- relative viability (HCC-827; first compound 0.04 µM): 0.53
- relative viability (HCC-827; first compound 0.1265 µM): 0.614
- relative viability (HCC-827; first compound 0.4 µM): 0.494
- relative viability (HCC-827; first compound 1.265 µM): 0.638
- relative viability (HCC-827; first compound 4 µM): 0.611
- relative viability (NCI-H1975; first compound 0.04 µM): 0.154
- relative viability (NCI-H1975; first compound 0.1265 µM): 0.238
- relative viability (NCI-H1975; first compound 0.4 µM): 0.237
- relative viability (NCI-H1975; first compound 1.265 µM): 0.29
- relative viability (NCI-H1975; first compound 4 µM): 0.177
- relative viability (NCI-H2085; first compound 0.04 µM): 0.474
- relative viability (NCI-H2085; first compound 0.1265 µM): 0.529
- relative viability (NCI-H2085; first compound 0.4 µM): 0.464
- relative viability (NCI-H2085; first compound 1.265 µM): 0.609
- relative viability (NCI-H2085; first compound 4 µM): 0.469
- relative viability (LOU-NH91; first compound 0.04 µM): 0.371
- relative viability (LOU-NH91; first compound 0.1265 µM): 0.331
- relative viability (LOU-NH91; first compound 1.265 µM): 0.368
- relative viability (LOU-NH91; first compound 4 µM): 0.315
- relative viability (201T; first compound 0.04 µM): 1.07
- relative viability (201T; first compound 0.1265 µM): 1.05
- relative viability (201T; first compound 0.4 µM): 1.13
- relative viability (201T; first compound 1.265 µM): 1.04
- relative viability (201T; first compound 4 µM): 1.13
- relative viability (HOP-62; first compound 0.04 µM): 0.928
- relative viability (HOP-62; first compound 0.1265 µM): 0.925
- relative viability (HOP-62; first compound 0.4 µM): 0.895
- relative viability (HOP-62; first compound 1.265 µM): 0.883
- relative viability (HOP-62; first compound 4 µM): 0.959
- relative viability (H3255; first compound 0.04 µM): 0.881
- relative viability (H3255; first compound 0.1265 µM): 0.91
- relative viability (H3255; first compound 0.4 µM): 0.82
- relative viability (H3255; first compound 1.265 µM): 0.743
- relative viability (H3255; first compound 4 µM): 0.838
- relative viability (NCI-H2087; first compound 0.04 µM): 0.152
- relative viability (NCI-H2087; first compound 0.1265 µM): 0.157
- relative viability (NCI-H2087; first compound 0.4 µM): 0.184
- relative viability (NCI-H2087; first compound 1.265 µM): 0.173
- relative viability (NCI-H2087; first compound 4 µM): 0.159
- relative viability (NCI-H1437; first compound 0.04 µM): 1.21
- relative viability (NCI-H1437; first compound 0.1265 µM): 1.19
- relative viability (NCI-H1437; first compound 0.4 µM): 1.13
- relative viability (NCI-H1437; first compound 1.265 µM): 1.12
- relative viability (NCI-H1437; first compound 4 µM): 1.14
- relative viability (HCC-44; first compound 0.04 µM): 1.24
- relative viability (HCC-44; first compound 0.1265 µM): 1.01
- relative viability (HCC-44; first compound 0.4 µM): 0.953
- relative viability (HCC-44; first compound 1.265 µM): 0.927
- relative viability (HCC-44; first compound 4 µM): 1.05
- relative viability (NCI-H358; first compound 0.04 µM): 0.498
- relative viability (NCI-H358; first compound 0.1265 µM): 0.381
- relative viability (NCI-H358; first compound 0.4 µM): 0.353
- relative viability (NCI-H358; first compound 1.265 µM): 0.345
- relative viability (NCI-H358; first compound 4 µM): 0.308
- relative viability (LCLC-97TM1; first compound 0.04 µM): 0.715
- relative viability (LCLC-97TM1; first compound 0.1265 µM): 0.808
- relative viability (LCLC-97TM1; first compound 0.4 µM): 0.741
- relative viability (LCLC-97TM1; first compound 1.265 µM): 0.725
- relative viability (LCLC-97TM1; first compound 4 µM): 0.951
- relative viability (SW 1573; first compound 0.04 µM): 0.425
- relative viability (SW 1573; first compound 0.1265 µM): 0.321
- relative viability (SW 1573; first compound 0.4 µM): 0.302
- relative viability (SW 1573; first compound 1.265 µM): 0.437
- relative viability (SW 1573; first compound 4 µM): 0.264
- relative viability (NCI-H647; first compound 0.04 µM): 0.128
- relative viability (NCI-H647; first compound 0.1265 µM): 0.0977
- relative viability (NCI-H647; first compound 0.4 µM): 0.169
- relative viability (NCI-H647; first compound 1.265 µM): 0.187
- relative viability (NCI-H647; first compound 4 µM): 0.138
- relative viability (COR-L 105; first compound 0.04 µM): 0.814
- relative viability (COR-L 105; first compound 0.1265 µM): 0.7
- relative viability (COR-L 105; first compound 0.4 µM): 0.877
- relative viability (COR-L 105; first compound 1.265 µM): 0.843
- relative viability (COR-L 105; first compound 4 µM): 0.74
- relative viability (NCI-H1395; first compound 0.04 µM): 0.668
- relative viability (NCI-H1395; first compound 0.1265 µM): 0.65
- relative viability (NCI-H1395; first compound 0.4 µM): 0.834
- relative viability (NCI-H1395; first compound 1.265 µM): 0.66
- relative viability (NCI-H1395; first compound 4 µM): 0.674
- relative viability (BEN; first compound 0.04 µM): 0.218
- relative viability (BEN; first compound 0.1265 µM): 0.265
- relative viability (BEN; first compound 0.4 µM): 0.514
- relative viability (BEN; first compound 1.265 µM): 0.399
- relative viability (BEN; first compound 4 µM): 0.404
- relative viability (NCI-H2126; first compound 0.04 µM): 0.925
- relative viability (NCI-H2126; first compound 0.1265 µM): 0.864
- relative viability (NCI-H2126; first compound 0.4 µM): 0.919
- relative viability (NCI-H2126; first compound 1.265 µM): 0.94
- relative viability (NCI-H2126; first compound 4 µM): 0.908

Reference: the supplement of paper PMC10307832
